Usually IC50 stands for the midpoint of a concentration-inhibition curve. The term AC50 denotes the midpoint of the concentration-response curve, whichever way the signal moves.

Drawing on ChEMBL document CHEMBL1201862, “PubChem BioAssay data set” (2004), this text covers EC50, IC50 and AC50 for 38 compounds.

The nature of assay [1]: Luminescence Cell-Based Dose Confirmation HTS to Identify Activators of 5'UTR Stem-Loop Driven Alpha-Synuclein mRNA Translation in H4 Neuroglioblastoma Cells. [Related pubchem assays: 1829 (Project Summary), 1814 (Primary HTS)]. Format: functional.
Assay [2] is described as follows: Luminescence Cell-Based Dose Response HTS to Identify Activators of Luciferase Translation or Activity in H4 […] Cells. [Related pubchem assays: 1829 (Project Summary), 1814 (Primary HTS)]. Format: functional.
In a further assay the test system is H4. As to the kind of experiment: Luminescence Cell-Based Dose Response HTS to Identify Activators of 5'UTR Stem-Loop Driven Prion Protein mRNA Translation in H4 Neuroglioblastoma Cells. [Related pubchem assays: 1829 (Project Summary), 1814 (Primary HTS)]. Type of assay: functional. The following applies: Homo sapiens.
Assay [3] addresses T1, Corticotropin-releasing factor receptor 2/Corticotropin-releasing factor-binding protein (Homo sapiens, UniProt P24387+Q13324).
T1 sequence (Q13324 whole entry): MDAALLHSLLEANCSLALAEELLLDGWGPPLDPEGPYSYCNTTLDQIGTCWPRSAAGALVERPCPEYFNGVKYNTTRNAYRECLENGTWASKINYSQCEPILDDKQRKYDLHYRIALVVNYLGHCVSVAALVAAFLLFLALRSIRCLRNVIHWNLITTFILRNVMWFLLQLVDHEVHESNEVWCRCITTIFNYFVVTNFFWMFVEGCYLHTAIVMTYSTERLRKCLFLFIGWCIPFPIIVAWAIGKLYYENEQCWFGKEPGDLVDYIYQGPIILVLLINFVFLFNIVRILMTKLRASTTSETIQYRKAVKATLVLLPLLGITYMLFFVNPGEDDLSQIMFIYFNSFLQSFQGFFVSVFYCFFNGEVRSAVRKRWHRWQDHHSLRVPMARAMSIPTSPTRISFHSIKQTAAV
T1 sequence (P24387 whole entry): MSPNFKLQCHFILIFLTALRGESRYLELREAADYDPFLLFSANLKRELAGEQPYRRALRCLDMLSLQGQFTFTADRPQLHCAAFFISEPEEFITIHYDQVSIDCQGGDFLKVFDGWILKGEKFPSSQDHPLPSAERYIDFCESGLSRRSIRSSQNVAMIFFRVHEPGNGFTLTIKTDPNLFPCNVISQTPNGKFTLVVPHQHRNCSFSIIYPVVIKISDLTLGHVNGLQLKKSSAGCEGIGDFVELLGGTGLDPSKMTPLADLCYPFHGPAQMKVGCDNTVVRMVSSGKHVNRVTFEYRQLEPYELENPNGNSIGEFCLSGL
As to the kind of experiment: activators of CRF receptor 2 with binding protein – uHTS hits, confirmation (AID 602473). Format: functional. The following applies: read-out: EC50_Mean.

The next assay has as its target Large T antigen (Simian virus 40, UniProt P03070). Format: functional, Betapolyomavirus macacae.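 Also: Confirmatory-stage PubChem screen for compounds that inhibit SV40 T antigen.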
A further assay deals with INS1. As to the kind of experiment: beta cell apoptosis inhibitors, cytokine rescue, dose response, luminescence, retest (AID 449756).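 Also: cell death triggered by IL-1 beta plus TNF-alpha plus IFN-gamma mixture; protective hits raise ATP signal compared with cytokine alone wells.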 Format: functional, cell-based. Particulars: Rattus norvegicus.
The nature of assay [4]: Shn3 3'UTR reporter inhibitors, dose response, cell-based, Clone20 osteoblasts, firefly luciferase, cherry-picked (AID 624132).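 Also: firefly luciferase luminescence from reporter carrying the Shn3 3'UTR in osteoblasts.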 Format: functional.
Assay [5] in a line: HepG2 cell cytotoxicity, dose response, cytotoxicity control for Shn3 inhibitor project, CellTiter-Glo, cherry-picked (AID 624134). Format: functional, cell-based. In general terms: ATP-based viability assays read luminescence as a measure of living cells.
A short description of assay [6]: control 3'UTR Renilla luciferase suppression, dose response, counter-screen for Shn3 inhibitor project, cell-based, Clone20-Shn3RL, cherry-picked (AID 624133). Type of assay: functional. A general note: A counterscreen serves to expose hits that act by an unwanted route or on another target.
A short description of assay [7]: inhibitors of firefly luciferase expression or activity, dose response, H4 neuroglioma cells, luminescence (AID 1990). Type of assay: functional, cell-based.
Assay [8] in a line: Luminescence Cell-Based Dose Response HTS to Identify Inhibitors of 5'UTR Stem-Loop Driven Prion Protein mRNA Translation in H4 Neuroglioblastoma Cells. [Related pubchem assays: 1827 (Project Summary), 1813 (Primary HTS)]. Format: functional.
Assay [9] can be described thus: inhibitors of SNCA 5'UTR-driven reporter translation, confirmation, H4 neuroglioma cells, luminescence (AID 1988). Format: functional, cell-based.
Assay [10] deals with T2, Rac GTPase-activating protein 1 (Homo sapiens, UniProt Q9H0H5).
T2 sequence (Q9H0H5 whole entry): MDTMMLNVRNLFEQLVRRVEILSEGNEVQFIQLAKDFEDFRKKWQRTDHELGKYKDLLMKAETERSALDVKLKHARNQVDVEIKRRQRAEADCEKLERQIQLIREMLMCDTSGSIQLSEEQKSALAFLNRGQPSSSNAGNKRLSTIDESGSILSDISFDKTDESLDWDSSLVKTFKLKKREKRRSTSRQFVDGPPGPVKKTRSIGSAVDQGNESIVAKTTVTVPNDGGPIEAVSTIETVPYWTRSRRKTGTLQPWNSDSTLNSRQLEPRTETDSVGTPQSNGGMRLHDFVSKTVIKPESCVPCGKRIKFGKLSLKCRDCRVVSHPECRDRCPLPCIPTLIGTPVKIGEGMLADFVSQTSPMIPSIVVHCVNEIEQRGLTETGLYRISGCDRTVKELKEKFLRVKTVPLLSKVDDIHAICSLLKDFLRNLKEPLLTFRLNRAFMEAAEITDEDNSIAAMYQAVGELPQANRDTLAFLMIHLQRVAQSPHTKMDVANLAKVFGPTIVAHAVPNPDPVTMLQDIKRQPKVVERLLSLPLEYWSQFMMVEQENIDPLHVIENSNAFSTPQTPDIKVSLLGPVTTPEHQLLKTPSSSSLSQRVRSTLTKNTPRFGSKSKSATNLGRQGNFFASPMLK
As to the kind of experiment: MgcRacGAP GTPase-activating activity inhibitors, confirmation, biochemical, ADP Hunter fluorescence, primary and confirmatory (AID 624330). Format: functional.

The nature of assay [11]: inhibitors of intracellular T. cruzi replication, confirmation, NIH3T3 host cells, beta-gal luminescence (AID 2044).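 Also: intracellular parasites grown in NIH/3T3 mouse fibroblasts as host cells; luminescent beta-galactosidase reporter signal from transgenic T. cruzi replicating inside host cells; inhibitors lower the luminescence signal.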 Type of assay: functional, cell-based.
The nature of assay [12]: cytotoxicity toward NIH3T3 fibroblasts, dose response, counter-screen, cell-based, ATP luminescence, mouse fibroblasts (AID 2010).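 Also: cells exposed to compound for about 90 hours before reading.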 Type of assay: functional.

Calls of active or inactive are those of the source. Rule as the data show it, for most assays here: actives have a measured EC50 and inactives only a lower limit.

Chain of Large T antigen (P03070 whole entry): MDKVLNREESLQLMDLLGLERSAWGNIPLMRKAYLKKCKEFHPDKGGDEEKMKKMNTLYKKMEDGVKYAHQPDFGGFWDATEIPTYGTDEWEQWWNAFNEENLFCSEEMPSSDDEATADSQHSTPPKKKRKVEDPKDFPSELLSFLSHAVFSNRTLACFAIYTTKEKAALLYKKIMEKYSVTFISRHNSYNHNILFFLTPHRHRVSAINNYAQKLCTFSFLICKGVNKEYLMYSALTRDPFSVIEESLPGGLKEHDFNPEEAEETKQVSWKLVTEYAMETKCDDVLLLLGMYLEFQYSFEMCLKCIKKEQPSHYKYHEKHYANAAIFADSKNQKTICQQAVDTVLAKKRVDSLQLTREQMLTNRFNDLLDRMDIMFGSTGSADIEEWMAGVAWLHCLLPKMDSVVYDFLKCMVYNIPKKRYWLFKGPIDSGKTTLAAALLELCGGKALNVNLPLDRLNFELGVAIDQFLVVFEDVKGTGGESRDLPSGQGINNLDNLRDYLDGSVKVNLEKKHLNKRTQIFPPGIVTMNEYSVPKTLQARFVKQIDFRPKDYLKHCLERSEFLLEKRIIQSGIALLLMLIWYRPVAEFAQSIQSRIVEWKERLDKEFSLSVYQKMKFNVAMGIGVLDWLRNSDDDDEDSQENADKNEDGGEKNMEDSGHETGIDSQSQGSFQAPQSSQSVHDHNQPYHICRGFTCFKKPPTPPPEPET

As to `c1ccc(CNc2ncnc3c2ncn3C2CCCCO2)cc1` (centres undefined), the values for the EC50 (in [1]; in assay [2]; with H4) were 5.99 µM (active), 4.67 µM (active) and > 120 µM (not active), respectively.

On to `CCOC(=O)c1ccc(NCn2c(=O)oc3ccccc32)cc1`, for which the EC50 in assay [3] was > 53 µM (inactive).

`CN(C)/C=C(\C#N)C(=O)Nc1ccc(O)cc1F`: the IC50 at Large T antigen is 17.6 µM (active).

In the case of `Cc1nn(-c2ccccn2)c2c1-c1nc(N)ncc1CC2`, the results for the EC50 in [1] and in assay [2] were 12.3 µM (active) and 1.98 µM (active), respectively.

In the case of `CCc1ccc(OC(=O)Nc2ccccc2)cc1`, the EC50 in [1] was 6.4 µM (active); in [2], > 120 µM (not active); in the assay on H4, 7.7 µM (active).

`CN1CN(C)c2cccc3cccc1c23`: the IC50 at Large T antigen was 73.9 µM (active).

`Oc1nc(COc2ccc(Cl)cc2Cl)nc2ccccc12`: the EC50 is 0.125 µM (active) in assay [1], 0.107 µM (active) in assay [2] and 0.148 µM (active) in the assay on H4.

As to `CCCCCn1c(=O)c(C(=O)NC(C)c2ccccc2)c(O)c2ccccc21` (centres undefined), the AC50 in the assay with INS1 is 5.84 µM (active); in assay [4] it was 11.7 µM (active); in assay [5], > 70 µM (inactive); in assay [6] it was 6.26 µM (active).

Consider `COc1ccccc1CNc1nc(NCc2ccccc2OC)c2sccc2n1`, for which the AC50 in [4] was 6.33 µM (active); in [5] it was 22.1 µM (active); in assay [6], 9.79 µM (active).

Consider `COc1ccc(-c2cc3ccc(OCc4nn[nH]n4)cc3oc2=O)cc1`, for which the EC50 in [7] was 13.9 µM (active); in assay [8], 14.6 µM (active); in assay [9] it was 13.3 µM (active).

With `c1ccc(-c2cn(CC3CCCCC3)nn2)cc1`, the EC50 in assay [1] was 0.146 µM (active); in assay [2] it was 0.236 µM (active); in the assay on H4 it was > 120 µM (inconclusive).

On to `Nc1ccc(Nc2ccccc2)c(Cl)c1`, for which the IC50 in [10] was 17.3 µM (active).

For the compound `Cc1cc(-c2cc(C)c(N)c(C)c2)cc(C)c1N`, in assay [10], the IC50 was 10.8 µM (active).

For the compound `O=c1c2ccccc2nc(/C=C/c2ccc(O)cc2)n1-c1ccccc1O`, the IC50 in [10] was 62.5 µM (active).

With `COc1cccc(/C=N/NC(=O)c2[nH]nc3c2CCc2ccccc2-3)c1`, the EC50 is reported as > 120 µM (not active) in assay [1], > 60 µM (not active) in assay [2] and > 120 µM (not active) in the assay with H4.

As to `O=C(c1cc(-c2ccc3c(c2)OCO3)on1)N1CCCCC1`, the EC50 is 10.3 µM (active) in [8] and 7.22 µM (inconclusive) in assay [9].

For the compound `O=C(NCCNCC(O)COc1ccc(O)cc1)N1CCOCC1` (centres undefined), the IC50 in [10] is 118 µM (active).

For the compound `Nc1ccc(N=Nc2ccc(N)cc2)cc1`, in [10], the IC50 is 22 µM (active).

As to `Cc1cc(NC(=O)c2cccnc2)ccc1NC(=O)c1cc2ccccc2o1`, the EC50 in assay [7] is 18.6 µM (active); in [8] it was 17.7 µM (active); in assay [9] it was 20.6 µM (active).

`O=c1[nH]c(=O)c2nnc(N/N=C\c3ccc(O)cc3)nc2[nH]1`: the IC50 at Large T antigen is 16.8 µM (active).

Take `OCC1CCCN(C(=S)Nc2ccc(Nc3ccccc3)cc2)C1` (centres undefined): the IC50 at Large T antigen is 8.16 µM (active); in assay [10], 41.8 µM (active).

As to `CCN(CC)S(=O)(=O)c1cccc(NC(=O)CNC2CCCCCC2)c1`, the IC50 in assay [10] is 185 µM (active).

`C[C@H](NC(=O)c1[nH]cnc1C(=O)NCc1ccc(CNC(=O)OC(C)(C)C)cc1)c1ccccc1`: the AC50 in [4] was 11.7 µM (active); in assay [5], > 70 µM (inactive); in [6], 14.9 µM (active).

For `Cc1ccc(NC(=O)Cc2nn(C)c(=O)c3ccccc23)cc1F`, the AC50 with INS1 is 3.98 µM (active); in assay [4] it was 0.73 µM (active); in assay [5], 3.46 µM (active); in [6], 2.3 µM (active).

Regarding `O=C(CN1CCN(c2ccc(O)cc2)CC1)NC(=O)NCc1ccco1`, the IC50 in assay [10] was 52.6 µM (active).

On to `CCS(=O)(=O)C1=NN2C(=N)/C(=C\c3ccc(OC(=O)c4ccco4)c(Br)c3)C(=O)N=C2S1`, for which the IC50 on Large T antigen was > 100 µM (active).

Turning to `O=C(Nc1ncc(S(=O)(=O)c2ccc([N+](=O)[O-])cc2)s1)c1cccc2ccccc12`, the EC50 was 0.221 µM (active) in [11], > 60 µM (not active) in assay [12] and 4.23 µM (active) in [3].

With `Cc1nnsc1-c1c(C(=O)Oc2ccccc2)c(C)nn1-c1ccccc1`, the EC50 in assay [7] was 18.8 µM (active); in assay [8], > 120 µM (not active); in assay [9] it was 19.8 µM (active).

Consider `COc1ccc(COc2ccccc2C(=O)NCc2ccccc2)cc1F`, for which the values for the AC50 in assay [4], in assay [5] and in assay [6] were 4.76 µM (active), 52.4 µM (active) and 10.1 µM (active), respectively.

On to `CC(C)CC(NC(=O)c1ccccc1)C(=O)N/N=C/c1ccco1` (centres undefined), for which the EC50 in assay [3] is 4.81 µM (active).

As to `Cn1c2ccccc2c2cc(C(=O)N3CCN(CCO)CC3)sc21`, the EC50 in assay [1] is > 120 µM (not active); in assay [2] it was 15.3 µM (active); in the assay with H4 it was 33.8 µM (active).

`Clc1ccccc1CNCc1ccc2c(c1)OCO2`: the IC50 in assay [10] is 257 µM (active).

For the compound `O=C(Nc1ccc(-c2cn3c(n2)SCC3)cc1)c1ccc2ccccc2n1`, the EC50 in [1] was 15.5 µM (active); in [2], 24 µM (active); in the assay on H4, 16.8 µM (active).

Consider `CC(C)C(OC(=O)c1ccccc1)c1nccc2ccccc12` (centres undefined), for which the EC50 is 21.5 µM (active) in assay [1], 17.8 µM (active) in assay [2] and 39.5 µM (active) with H4.

In the case of `Cc1ccc(-n2nnnc2-c2cnc(-c3cccnc3)nc2C(F)(F)F)cc1`, the AC50 in assay [4] is 5.89 µM (active); in assay [5], 57.4 µM (active); in assay [6], 23 µM (active).

`Cc1ccc(Nc2nc(=O)c3cccnc3s2)cc1`: the results for the EC50 (in [2]; in the assay on H4) were 2.71 µM (active) and > 120 µM (not active), respectively.

As to `CC(=O)OCC1OC(n2cc(F)c(=O)[nH]c2=O)C(OC(C)=O)C1OC(C)=O` (centres undefined), the EC50 in assay [1] is > 120 µM (not active); in assay [2], 117 µM (active); in the assay on H4 it was > 120 µM (not active).

On to `CC(C)OC(=O)Cn1nnc2c(cnn2-c2ccccc2)c1=O`, for which the EC50 was 13.4 µM (active) in [1], 13.1 µM (active) in [2] and 20.7 µM (active) in the assay with H4.
